This is an account of results in patent US20150174202A1, “Methods and Compositions for Modulating Beta Cell Proliferation” (The Board of Trustees of the Leland Stanford Junior …, priority 2011, published 2015).

“Also recorded” adds a separate entry of the source.

Experiment [1] deals with T1, Pdgfr-α (Mus musculus, UniProt P26618).
T1 construct: endogenous in cells; host or cells: primary pancreatic islets from C57BL/6 mice (3-week-old wild-type islets), cultured ex vivo
The experiment can be described thus: Phosphorylation of Pdgfr-α in cultured mouse islets (western blot). Type of experiment: cell-based. Particulars: 3-week-old mouse islets exposed to PDGF-AA. The procedure:
Mouse pancreatic islets were purified as described in Chen et al. (2009) Genes Dev. 23, 975-985 and used immediately for assays described in the text. To study Ezh2 induction in cultured islets exposed to mitogens, freshly isolated islets from 2-3-week old, and 7-12-month old C57BL/6 mice were recovered and equilibrated overnight at 37° C., 5% CO2 in RPMI-1640 medium supplemented with 0.5% fetal bovine serum (FBS), 0.2% bovine albumin (BSA) and 2% penicillin/streptomycin. Afterwards, islets were distributed into microplates or dishes, and treated with recombinant human PDGF-AA, prolactin or insulin (Sigma), with or without addition of pharmacological inhibitors, including Sunitinib (Selleck), Vargatef (Selleck), U0126 (Sigma), LY294002 (Sigma) or U-73122 (Sigma) at the indicated concentrations. Two days later, islets were harvested for RNA or protein extraction for real-time RTPCR or western blot analyses. To detect phosphorylation of Pdgfr-α by western blot, islets were exposed to PDGF-AA (with or without indicated pharmacological inhibitors) for 90 min before islet harvesting and protein extraction. […] Immunostaining of BrdU and insulin was performed on processed islets, and β-cell proliferation rate was determined by quantifying percentage of insulin+ cells with BrdU+. […]
(In general: A western blot detects proteins with antibodies after separation by electrophoresis.)

For experiment [2], the system named is Ezh2. The experiment can be described thus: Ezh2/Ezh1 expression in cultured mouse islets (real-time RT-PCR, western blot). The class given is cell-based. The procedure:
Mouse pancreatic islets were purified as described in Chen et al. (2009) Genes Dev. 23, 975-985 and used immediately for assays described in the text. To study Ezh2 induction in cultured islets exposed to mitogens, freshly isolated islets from 2-3-week old, and 7-12-month old C57BL/6 mice were recovered and equilibrated overnight at 37° C., 5% CO2 in RPMI-1640 medium supplemented with 0.5% fetal bovine serum (FBS), 0.2% bovine albumin (BSA) and 2% penicillin/streptomycin. Afterwards, islets were distributed into microplates or dishes, and treated with recombinant human PDGF-AA, prolactin or insulin (Sigma), with or without addition of pharmacological inhibitors, including Sunitinib (Selleck), […]0126 (Sigma), LY294002 (Sigma) or U-73122 (Sigma) at the indicated concentrations. Two days later, islets were harvested for RNA or protein extraction for real-time RTPCR or western blot analyses. To detect phosphorylation of Pdgfr-α by western blot, islets were exposed to PDGF-AA (with or without indicated pharmacological inhibitors) for 90 min before islet harvesting and protein extraction. To detect in vitro islet β-cell proliferation stimulated by PDGF-AA, a final concentration of 50 μM BrdU was introduced into each culture dish 24 h before harvest, followed by standard histological processing. Immunostaining of BrdU and insulin was performed on processed islets, and β-cell proliferation rate was determined by quantifying percentage of insulin+ cells with BrdU+. Culture experiments of human islets were performed using a similar procedure described later. Total RNA from freshly isolated or cultured islets after indicated treatments were purified using the Absolutely RNA miniprep purification kit (Stratagene) according to the manufacturer's instructions. RNA concentration was measured with a RiboGreen RNA quantification assay (Invitrogen). One-step quantitative RT-PCR was performed and analysed using an ABI Prism 7300 detection system (Applied Biosystems) with TaqMan one-step RTPCR Master Mix Reagents and appropriate amounts (10-100 ng) of islet total RNA as the template. We calculated the ratio of mRNA for the gene of interest to the amount of internal control mRNA of peptidylprolyl isomerase A (cyclophilin A, PPIA), and then normalized the ratio for each gene to its median. For western blots, total islet protein was prepared from freshly isolated or cultured islets after indicated treatments as described in Chen et al. (2009) Genes Dev. 23, 975-985. Equal amounts of protein were resolved on SDS-PAGE and transferred to polyvinylidine fluoride membranes (Amersham Pharmacia) for immunoblotting with specific antibodies, including rabbit polyclonal anti-human Ezh2 (1:1,000, Millipore), rabbit polyclonal anti-phospho-PDGFR-α ([…]) (1:1,000, Santa Cruz Biotechnologies), rabbit monoclonal anti-PDGFR-α (1:1,000, Cell Signaling), mouse monoclonal anti-β-actin (1:4,000, Sigma), rabbit monoclonal anti-Akt (1:1,500, Cell Signaling), rabbit monoclonal anti-phospho-Ark ([…]) (1:1,000, Cell Signaling), rabbit monoclonal anti-p44/42 MAPK (Erk1/2) (1:1,500, Cell Signaling), rabbit monoclonal anti-phospho-p44/42 MAPK (Erk1/2) […]) (1:1,000, Cell Signaling), rabbit monoclonal anti-PLCγ1 (1:1,000, Cell Signaling) and rabbit monoclonal anti-phospho-PLCγ1 ([…]) (1:1,000, Cell Signaling). Signal was visualized using ECL detection (Amersham Pharmacia) on Kodak film after further incubation with HRP-conjugated secondary antibodies. For phospho-PDGFR-α ([…]) and PDGFR-α detection, signal was amplified by incubating the membrane with biotinylated anti-rabbit-IgG (1:2,000), followed with an incubation with HRP-avidin (1:2,000, Vector Laboratories) and then ECL visualization.

T1 sequence (P26618 25-1089): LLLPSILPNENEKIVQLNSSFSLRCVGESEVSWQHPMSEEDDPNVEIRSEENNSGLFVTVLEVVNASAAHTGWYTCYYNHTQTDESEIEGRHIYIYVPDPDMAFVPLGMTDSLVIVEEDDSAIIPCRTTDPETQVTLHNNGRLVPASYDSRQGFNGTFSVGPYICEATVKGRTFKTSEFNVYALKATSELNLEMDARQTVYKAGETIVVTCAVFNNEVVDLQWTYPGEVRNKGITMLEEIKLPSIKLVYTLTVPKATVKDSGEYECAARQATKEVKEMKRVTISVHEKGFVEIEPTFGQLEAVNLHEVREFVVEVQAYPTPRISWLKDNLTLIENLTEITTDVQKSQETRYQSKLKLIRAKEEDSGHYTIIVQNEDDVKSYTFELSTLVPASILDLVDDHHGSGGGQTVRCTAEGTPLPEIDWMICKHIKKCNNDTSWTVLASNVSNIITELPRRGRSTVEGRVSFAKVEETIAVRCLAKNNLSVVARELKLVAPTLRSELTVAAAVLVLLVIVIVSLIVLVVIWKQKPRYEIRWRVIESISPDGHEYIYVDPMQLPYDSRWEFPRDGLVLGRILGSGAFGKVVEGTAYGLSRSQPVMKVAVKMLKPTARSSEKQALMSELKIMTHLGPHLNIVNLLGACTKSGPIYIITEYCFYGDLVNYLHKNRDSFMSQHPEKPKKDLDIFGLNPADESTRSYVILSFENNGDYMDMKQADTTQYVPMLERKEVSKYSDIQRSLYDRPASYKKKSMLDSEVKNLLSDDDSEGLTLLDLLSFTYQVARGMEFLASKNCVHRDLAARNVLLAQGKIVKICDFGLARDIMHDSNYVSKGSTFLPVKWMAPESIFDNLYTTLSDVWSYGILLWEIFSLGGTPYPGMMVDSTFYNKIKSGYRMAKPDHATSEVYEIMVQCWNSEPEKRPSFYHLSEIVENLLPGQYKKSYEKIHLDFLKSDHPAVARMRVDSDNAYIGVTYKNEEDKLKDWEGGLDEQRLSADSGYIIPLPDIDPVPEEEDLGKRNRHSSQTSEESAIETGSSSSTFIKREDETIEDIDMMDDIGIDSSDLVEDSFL

For “PDGF-AA: recombinant human PDGF-AA, a homodimer of PDGF alpha polypeptides”, the phospho-Pdgfr-α levels result in experiment [1] is “increased”. Besides, the “Ezh2 mRNA and protein levels” value in experiment [2] (3-week-old (juvenile) mouse islets, 2 days exposure) is listed as “increased; also recorded: induces”; in experiment [2] (7- or 9-month-old adult mouse islets exposed to PDGF-AA), “not significantly increased”. Moreover, the Ezh1 expression entry in experiment [2] (3-week-old mouse islets, 2 days exposure) is listed as “but not Ezh1 expression”.
